{
  "source": "patent US20250250218A1",
  "about": "“Anti-Amyloidogenic Curcumin Analogues” (MCPHS University, priority 2024, published 2025)",
  "key": {"Aβ1-42 peptide": {"molecular_target": "Aβ1-42 peptide (Homo sapiens, UniProt P05067)", "sequence (P05067 672-713 limits assumed)": "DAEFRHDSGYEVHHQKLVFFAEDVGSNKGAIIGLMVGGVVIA", "test": "Thioflavin T (ThT) fluorescence assay of Aβ1-42 aggregation (SensoLyte kit)", "type": "biochemical", "conditions": "Aβ1-42 35 μM, minimum of five concentrations, read-out: IC50, inhibition of Aβ aggregation (anti-amyloidogenic activity)", "procedure": "All newly synthesized compounds were screened for their anti-amyloidogenic activity on Aβ1-42 peptides, using Phenol Red as the internal standard—all at 100 μM. […] To obtain the IC50 values (shown in FIGS. 4A-4D), all compounds were tested at a minimum of five different concentrations.\nSamples of ThT (final concentration of 200 μM) and Aβ1-42 peptide (final concentration of 35 μM) were incubated at 37° C. in a black clear bottom 96-well plate. The ThT fluorescence intensity of each sample was immediately measured every 5 min for 120 min, with 440/485 nm excitation/emission filters and with 15 sec shaking between reads to facilitate aggregation. An inhibitor control containing Aβ1-42 and a supplied aggregation inhibitor (Phenol Red), at a final concentration of 100 μM. The positive control contained Aβ1-42 without an inhibitor. […] All the wells were brought to 100 μL as a final volume."}, "Aβ42": {"tested_on": "Aβ42", "test": "Human Aβ42 ELISA on heads of treated transgenic flies", "type": "in vivo", "conditions": "any concentration fed (1, 10, 100 mcg/mL)", "procedure": "To perform the ELISA, the samples were first thawed on ice. A protease inhibitor cocktail with AEBSF (a serine protease inhibitor) was added to each sample, with a final concentration of 1 mM, and were then centrifuged to remove the large particulate matter. After centrifugation, samples were diluted with Standard Diluent Buffer at a 1:50 ratio to ensure sample concentrations would be within the range of the standard curve. […] After 30 min, the solution was thoroughly aspirated, and the wells were washed four times with Ix Wash Buffer. Stabilizing Chromogen (100 mcL) was added to each well and the plate was incubated in the dark. After 30 min, 100 mcL of the Stop Solution was added to every well and the plate was read immediately at an absorbance of 450 nm.\nAbsorbance measurements for each sample and control were averaged, and from the calibration curve the corresponding level of AB was determined. Data were analyzed using a one-way ANOVA. […] Thus, the physiological benefit observed when the flies were fed either Compound 25, 33, or 34 at varying concentrations, was most likely a result of a decrease in brain plaque burden."}, "[1]": {"tested_on": "Drosophila melanogaster UAS-Aβ 1-42/nSyb-Gal4", "test": "Forced climbing assay in transgenic flies overexpressing Aβ", "type": "in vivo", "text": "To produce the transgenic Drosophila line of interest, UAS-Aβ42 1-42 female virgins were crossed with nSyb-Gal4 males. UAS-Aβ42 1-42 has a TM3, Sb balancer on the third chromosome, resulting in the mutant Sb gene, indicative of stubble bristles as a dominant marker. When crossed with the driver line, such as nSyb-Gal4, the transgenic line will either be UAS-Aβ42 1-42/nSyb-Gal4 or nSyb-Gal4/TM3, Sb. […] All offspring with the inherited balanced nSyb-Gal4TM3, Sb were negatively selected. Once enough F1 progeny of the transgenic line of interest were available, testing of the compounds was carried out. The extended chalcones of interest were dissolved in DMSO to a concentration of 5 mg/mL. […] These three concentrations were then introduced to each respective group. […] A forced climbing assay was conducted on the transgenic flies exposed to the extended chalcone compounds. […] The climbing assay was conducted five times a day, beginning on the seventh day after the flies were exposed to the compounds. Vials were marked with top, middle, and bottom sections, separated by one inch."}, "SH-SY5Y cells": {"tested_on": "SH-SY5Y cells", "test": "MTT cell viability assay (neurotoxicity and neuroprotection)", "conditions": "48 h; for decrease in cell viability, compound co-administered with Aβ42: compound at IC50 concentration + Aβ42 20 μM, Aβ42 alone […]%; for cytotoxicity / neurotoxicity of compound alone: compound at its IC50 concentration", "experimental": "To test neurotoxicity and neuroprotective effects of the compounds, a 3-(4,5-dimethylthiazol-2-yl)-2,5-diphenyltetrazolium bromide (MTT) assay was performed using compounds 25, 33, and 34 as described [8].\nSH-SY5Y cells (CRL-2266, ATCC, Manassas, VA) were maintained in SH-SY5Y cells (CRL-2266, ATCC, Manassas, VA, USA) were maintained in Dulbecco's Modified Eagle's Medium and Ham's F-12 Medium (DMEM: F12) supplemented with 50 mL fetal bovine serum (10%) and incubated at 37° C., 5% CO2, and 90% humidity. For the MTT assay, cells were sub-cultured using trypsin-ethylenediaminetetraacetic acid (EDTA) (0.25%) solution into clear 96-well plates and allowed to adhere for 24 h. […] All groups were incubated for 48 h.\nThe MTT assay (Ab211091, Abcam, Waltham, MA, USA) was used to measure cell viability with metabolically active cells reducing the MTT reagent into insoluble formazan. Following the removal of the treatment media, 50 μL of serum-free media and 50 riL of MTT Reagent was added to each well. The plate was then incubated at 37° C. for 3 h. After incubation, 150 μL of MTT Solvent was added into each well. The plate was then wrapped in foil and placed on an orbital plate shaker for 15 min. The absorbance was read at 590 nm."}, "[2]": {"conditions": "1 mcg/mL fly food, control 4.33%"}, "[3]": {"conditions": "1 mcg/mL fly food, control approximately 95%"}},
  "data": [
    {"compound": "CN(C)c1ccc(C=CC=CC(=O)c2ccc(Cl)cc2)cc1", "note": "[Compound 3]", "values": [
      {"measurement": "IC50", "setting": "Aβ1-42 peptide", "result": 2.4, "unit": "µM"}
    ]},
    {"compound": "COc1ccc(C(=O)/C=C/C=C/c2ccc(N(C)C)cc2)cc1", "note": "[Compound 15, (2E,4E)-5-(4-(dimethylamino)phenyl)-1-(4-methoxyphenyl)penta-2,4-dien-1-one]", "values": [
      {"measurement": "IC50", "setting": "Aβ1-42 peptide", "result": 3.2, "unit": "µM"}
    ]},
    {"compound": "CSc1ccc(C(=O)/C=C/C=C/c2ccc(N(C)C)cc2)cc1", "note": "[Compound 18, (2E,4E)-5-(4-(dimethylamino)phenyl)-1-(4-(methylthio)phenyl)penta-2,4-dien-1-one]", "values": [
      {"measurement": "IC50", "setting": "Aβ1-42 peptide", "result": 1.5, "unit": "µM"}
    ]},
    {"compound": "CN(C)c1ccc(/C=C/C=C/C(=O)c2cc(Cl)cc(Cl)c2)cc1", "note": "[Compound 25, (2E,4E)-1-(3,5-dichlorophenyl)-5-(4-(dimethylamino)phenyl)penta-2,4-dien-1-one]", "values": [
      {"measurement": "IC50", "setting": "Aβ1-42 peptide", "result": 0.91, "unit": "µM"},
      {"measurement": "change in levels of Aβ in fly heads (ELISA)", "setting": "Aβ42", "result": "no statistically significant change"},
      {"measurement": "percentage of flies in middle section after 10 s", "setting": "[1]; [2]", "result": 15.56, "unit": "%"},
      {"measurement": "percentage of flies in bottom section after 10 s", "setting": "[1]; [3]", "result": 82.15, "unit": "%"},
      {"measurement": "percentage climbing compared to control, bottom, 95% CI", "setting": "[1]; 1 mcg/mL, FIG. 8", "result": "1.543-24.82"},
      {"measurement": "percentage climbing compared to control, middle, 95% CI", "setting": "[1]; 1 mcg/mL, FIG. 8", "result": "−18.97-−3.487"},
      {"measurement": "decrease in cell viability, compound co-administered with Aβ42", "setting": "SH-SY5Y cells", "result": 52, "unit": "%"},
      {"measurement": "cytotoxicity / neurotoxicity of compound alone", "setting": "SH-SY5Y cells", "result": "no cytotoxicity"}
    ]},
    {"compound": "O=C(/C=C/C=C/c1ccc(N2CCCCC2)cc1)c1ccc(Cl)cc1", "note": "[Compound 33, (2E,4E)-1-(4-chlorophenyl)-5-(4-(piperidin-1-yl)phenyl)penta-2,4-dien-1-one]", "values": [
      {"measurement": "IC50", "setting": "Aβ1-42 peptide", "result": 1.1, "unit": "µM"},
      {"measurement": "change in levels of Aβ in fly heads (ELISA)", "setting": "Aβ42", "result": "no statistically significant change"},
      {"measurement": "percentage of flies in top section after 10 s", "setting": "[1]; 1 mcg/mL fly food, control 0.33%", "result": 8.00, "unit": "%"},
      {"measurement": "percentage of flies in middle section after 10 s", "setting": "[1]; [2]", "result": 26.00, "unit": "%"},
      {"measurement": "percentage of flies in bottom section after 10 s", "setting": "[1]; [3]", "result": 66.00, "unit": "%"},
      {"measurement": "percentage climbing compared to control, bottom, 95% CI", "setting": "[1]; 1 mcg/mL, FIG. 8", "result": "18.63-40.04"},
      {"measurement": "percentage climbing compared to control, middle, 95% CI", "setting": "[1]; 1 mcg/mL, FIG. 8", "result": "−29.70-−13.63"},
      {"measurement": "percentage climbing compared to control, top, 95% CI", "setting": "[1]; 1 mcg/mL, FIG. 8", "result": "−12.8-−2.516"},
      {"measurement": "percentage of flies in bottom section after 10 s", "setting": "[1]; 10 mcg/mL fly food", "result": 74.00, "unit": "%"},
      {"measurement": "percentage of flies in middle section after 10 s", "setting": "[1]; 10 mcg/mL fly food", "result": 22.33, "unit": "%"},
      {"measurement": "percentage climbing compared to control, bottom, 95% CI", "setting": "[1]; 10 mcg/mL, FIG. 8", "result": "10.63-32.04"},
      {"measurement": "percentage climbing compared to control, middle, 95% CI", "setting": "[1]; 10 mcg/mL, FIG. 8", "result": "−26.04-−9.964"},
      {"measurement": "decrease in cell viability, compound co-administered with Aβ42", "setting": "SH-SY5Y cells", "result": 52, "unit": "%"},
      {"measurement": "cytotoxicity / neurotoxicity of compound alone", "setting": "SH-SY5Y cells", "result": "no cytotoxicity"}
    ]},
    {"compound": "(2E,4E)-1-(4-chlorophenyl)-5-(4-(piperidin-1-yl)phenyl)penta-2,4-dien-1-one [Compound 34]", "values": [
      {"measurement": "IC50", "setting": "Aβ1-42 peptide", "result": 0.62, "unit": "µM"},
      {"measurement": "change in levels of Aβ in fly heads (ELISA)", "setting": "Aβ42", "result": "no statistically significant change"},
      {"measurement": "percentage of flies in bottom section after 10 s", "setting": "[1]; 10 mcg/mL fly food", "result": 82.50, "unit": "%"},
      {"measurement": "percentage of flies in middle section after 10 s", "setting": "[1]; 10 mcg/mL fly food", "result": 15.00, "unit": "%"},
      {"measurement": "percentage climbing compared to control, middle, 95% CI", "setting": "[1]; 10 mcg/mL, FIG. 8", "result": "−18.78-−2.558"},
      {"measurement": "percentage of flies in bottom section after 10 s", "setting": "[1]; 100 mcg/mL fly food", "result": 81.26, "unit": "%"},
      {"measurement": "percentage of flies in middle section after 10 s", "setting": "[1]; 100 mcg/mL fly food", "result": 14.90, "unit": "%"},
      {"measurement": "percentage climbing compared to control, bottom, 95% CI", "setting": "[1]; 100 mcg/mL, FIG. 8", "result": "3.395-24.75"},
      {"measurement": "percentage climbing compared to control, middle, 95% CI", "setting": "[1]; 100 mcg/mL, FIG. 8", "result": "−18.67-−2.463"},
      {"measurement": "decrease in cell viability, compound co-administered with Aβ42", "setting": "SH-SY5Y cells", "result": 60, "unit": "%"},
      {"measurement": "cytotoxicity / neurotoxicity of compound alone", "setting": "SH-SY5Y cells", "result": "no cytotoxicity"}
    ]}
  ]
}
